Data on 22 molecules can be found in patent publication US20130303507A1 (Novartis AG, priority 2011, published 2013).

Several values for one entry are separate records, joined by “and”; a condition that tells them apart may be missing. Equal entries are not always repeated. Where two headings read alike, the source gives them in different places. Where only a bound is given, the exact number is not on record here.

One assay concerns neointima formation. To be noted: in rats; cited from earlier work.
For another assay, the target named is Cdk9/cyclinT1 (Homo sapiens, UniProt P50750). The assay can be described thus: Cdk9/cyclinT1 Alpha Screen protocol. It is filed as biochemical. More on the design: Full length wild type Cdk9/cyclin T1 is purchased from Invitrogen; purchased Invitrogen PV4131. As to conditions: individual determinations, read-out: CDK9_cyclinT1_AS2_IC50. As for the experimental part:
Cdk9/cyclinT1 Alpha Screen Protocol
Full length wild type Cdk9/cyclin T1 is purchased from Invitrogen, cat#PV4131. […] The cdk7tide peptide substrate, biotin-[…] -OH, is a custom synthesis purchased from the Tufts University Core Facility. The final concentration of cdk7tide peptide substrate is 200 nM. […] Phospho-Rpb1 CTD (ser2/5) substrate antibody is purchased from Cell Signaling Technology. The final concentration of antibody is 0.67 ug/ml. The Alpha Screen Protein A detection kit containing donor and acceptor beads is purchased from PerkinElmer Life Sciences. The final concentration of both donor and acceptor beads is 15 ug/ml. Alpha Screen is used for detection. […] The biotinylated-cdk7tide peptide substrate is bound to the streptavidin coated donor bead. The antibody is bound to the protein A coated acceptor bead. The antibody will bind to the phosphorylated form of the biotinylated-cdk7tide peptide substrate, bringing the donor and acceptor beads into close proximity. Laser irradiation of the donor bead at 680 nm generates a flow of short-lived singlet oxygen molecules. When the donor and acceptor beads are in close proximity, the reactive oxygen generated by the irradiation of the donor beads initiates a luminescence/fluorescence cascade in the acceptor beads. This process leads to a highly amplified signal with output in the 530-620 nm range. Assays are carried out in 50 mM Hepes, pH=7.5, 10 mM MgCl2, 0.1% Bovine Serum Albumin, 0.01% Tween-20, 1 mM Dithiothreitol, 2.5% Dimethyl Sulfoxide. Stop and detection steps are combined using 50 mM Hepes, pH=7.5, 18 mM EDTA, 0.1% Bovine Serum Albumin, 0.01% Tween-20.

Sequence of Cdk9/cyclinT1 (P50750 whole entry): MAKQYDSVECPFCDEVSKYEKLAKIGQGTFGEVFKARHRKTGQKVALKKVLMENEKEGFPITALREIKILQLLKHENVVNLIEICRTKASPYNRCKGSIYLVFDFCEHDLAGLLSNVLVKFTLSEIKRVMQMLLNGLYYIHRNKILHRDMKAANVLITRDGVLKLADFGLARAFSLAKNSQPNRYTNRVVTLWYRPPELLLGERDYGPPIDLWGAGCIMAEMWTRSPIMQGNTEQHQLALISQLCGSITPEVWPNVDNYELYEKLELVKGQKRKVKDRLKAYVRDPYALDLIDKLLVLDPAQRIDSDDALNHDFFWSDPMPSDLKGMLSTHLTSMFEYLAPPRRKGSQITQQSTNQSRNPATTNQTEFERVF
Sequence of Cdk9/cyclinT1 (O60563 whole entry partner): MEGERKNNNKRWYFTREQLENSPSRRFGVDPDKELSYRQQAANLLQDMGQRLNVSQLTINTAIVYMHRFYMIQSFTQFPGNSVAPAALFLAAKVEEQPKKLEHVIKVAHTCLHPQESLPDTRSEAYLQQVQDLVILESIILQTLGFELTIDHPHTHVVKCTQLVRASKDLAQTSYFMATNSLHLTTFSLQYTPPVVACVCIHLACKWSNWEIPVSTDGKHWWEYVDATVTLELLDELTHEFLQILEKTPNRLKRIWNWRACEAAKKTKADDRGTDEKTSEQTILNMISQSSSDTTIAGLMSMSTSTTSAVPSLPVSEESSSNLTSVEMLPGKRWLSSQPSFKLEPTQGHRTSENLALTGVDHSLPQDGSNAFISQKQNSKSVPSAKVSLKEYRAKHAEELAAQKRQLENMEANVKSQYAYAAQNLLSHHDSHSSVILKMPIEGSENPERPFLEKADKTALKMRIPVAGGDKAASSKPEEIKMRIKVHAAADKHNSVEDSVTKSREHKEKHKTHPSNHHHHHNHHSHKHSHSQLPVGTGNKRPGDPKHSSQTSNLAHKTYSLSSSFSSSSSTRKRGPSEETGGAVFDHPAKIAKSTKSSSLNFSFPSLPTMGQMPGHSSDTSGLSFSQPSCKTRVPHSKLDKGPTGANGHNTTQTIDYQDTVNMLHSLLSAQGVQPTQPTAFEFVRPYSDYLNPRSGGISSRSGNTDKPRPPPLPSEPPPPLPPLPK

Take `COc1ccc(CNc2nc(N(CCO)CCO)nc3c2ncn3C(C)C)cc1` [CVT-313]: in the assay with neointima formation, the “inhibition of neointima formation” value is “greater than 80%”.

As for `N#CC1(CNc2cccc(-c3cc(N[C@H]4CC[C@@H](NCC5(O)CC5)CC4)ncc3Cl)n2)CCOCC1` [Compound 573], the IC50 on Cdk9/cyclinT1 (neutral species) was found to be 6.44 nM.

For the molecule `N#CC1(CNc2cccc(-c3cc(N[C@H]4CC[C@H](NC5CC(F)(F)C5)CC4)ncc3Cl)n2)CCOCC1` [Compound 563], the IC50 at Cdk9/cyclinT1 (neutral species) turned out to be 0.416 nM.

For the molecule `CO[C@H]1CCN([C@H]2CC[C@H](Nc3cc(-c4cccc(NCC5(C#N)CCOCC5)n4)c(F)cn3)CC2)C1` [Compound 516], the IC50 at Cdk9/cyclinT1 (neutral species) turned out to be 0.835 nM.

Take `CO[C@H]1CCN([C@H]2CC[C@@H](Nc3cc(-c4cccc(NCC5(C#N)CCOCC5)n4)c(Cl)cn3)CC2)C1` [Compound 513]: the IC50 on Cdk9/cyclinT1 (TFA salt) was 26.1 nM; at Cdk9/cyclinT1 (neutral species), 5.39 nM.

Turning to `COC[C@@H](C)N[C@H]1CC[C@H](Nc2cc(-c3cnc(Cl)c(NCC4(C#N)CCOCC4)n3)c(Cl)cn2)CC1` [Compound 512], the IC50 on Cdk9/cyclinT1 (neutral species) was determined as 254 nM.

With `N#CC1(CNc2cccc(-c3cc(N[C@H]4CC[C@@H](N5CC6(COC6)C5)CC4)ncc3Cl)n2)CCOCC1` [Compound 547], the IC50 at Cdk9/cyclinT1 (neutral species) came out at 6.15 nM.

In the case of `N#CC1(COc2cncc(-c3cc(N[C@H]4CC[C@H](NC[C@@H](O)C(F)(F)F)CC4)ncc3Cl)n2)CCOCC1` [Compound 575], the IC50 at Cdk9/cyclinT1 (neutral species) amounted to 0.215 nM.

For the molecule `C[C@H](N[C@H]1CC[C@H](Nc2cc(-c3cccc(NCC4(C#N)CCOCC4)n3)c(Cl)cn2)CC1)[C@@H](C)O` [Compound 531], at Cdk9/cyclinT1 (neutral species), the IC50 came out at 0.471 nM.

Regarding `C[C@H](O)[C@@H](C)N[C@H]1CC[C@H](Nc2cc(-c3cccc(NCC4(C#N)CCOCC4)n3)c(Cl)cn2)CC1` [Compound 543], the IC50 on Cdk9/cyclinT1 (TFA salt) was found to be 0.229 nM.

As for `N#CC1(CNc2cccc(-c3cc(N[C@H]4CC[C@@H](NC5CC(F)(F)C5)CC4)ncc3Cl)n2)CCOCC1` [Compound 564], the IC50 on Cdk9/cyclinT1 (neutral species) worked out at 9.54 nM.

With `[2H]C([2H])([2H])OC[C@@H](C)N[C@H]1CC[C@H](Nc2cc(-c3cncc(OCC4(C#N)CCOCC4)n3)c(Cl)cn2)CC1` [Compound 599], the IC50 on Cdk9/cyclinT1 (neutral species) is under 1 nM.

As for `C[C@H](CO)N[C@H]1CC[C@@H](Nc2cc(-c3cncc(OCC4(C#N)CCOCC4)n3)c(F)cn2)CC1` [Compound 593], at Cdk9/cyclinT1 (neutral species), the IC50 is 25 nM.

Consider `CC(C)(C)OCCN[C@H]1CC[C@H](Nc2cc(-c3cccc(NCC4(C#N)CCOCC4)n3)c(Cl)cn2)CC1` [Compound 515], for which the IC50 on Cdk9/cyclinT1 (TFA salt) was found to be 2.19 nM; at Cdk9/cyclinT1 (neutral species), 0.217 nM.

As to `N#CC1(CNc2cccc(-c3cc(N[C@H]4CC[C@@H](N5CCCOCC5)CC4)ncc3Cl)n2)CCOCC1` [Compound 538], the IC50 at Cdk9/cyclinT1 (TFA salt) was 19.8 nM and 20.9 nM.

Turning to `N#CC1(COc2cncc(-c3cc(N[C@H]4CC[C@H](NC[C@H](O)C(F)(F)F)CC4)ncc3Cl)n2)CCOCC1` [Compound 574], at Cdk9/cyclinT1 (neutral species), the IC50 was found to be 0.448 nM.

For the molecule `N#CC1(CNc2cccc(-c3cc(N[C@H]4CC[C@H](N5CC6(COC6)C5)CC4)ncc3Cl)n2)CCOCC1` [Compound 546], on Cdk9/cyclinT1 (neutral species), the IC50 was 1.42 nM and 1.08 nM and 1.12 nM.

For the molecule `N#CC1(CNc2cccc(-c3cc(N[C@H]4CC[C@H](NCC(O)CF)CC4)ncc3Cl)n2)CCOCC1` (stereo partly drawn) [Compound 535], the IC50 on Cdk9/cyclinT1 (neutral species) turned out to be 0.398 nM.

Take `[2H]C(C)(COC)N[C@H]1CC[C@H](Nc2cc(-c3cccc(NCC4(C#N)CCOCC4)n3)c(Cl)cn2)CC1` (stereo partly drawn) [Compound 594]: the IC50 on Cdk9/cyclinT1 (neutral species) was under 1 nM.

`C[C@H](O)CN[C@H]1CC[C@H](Nc2cc(-c3cccc(NCC4(C#N)CCOCC4)n3)c(Cl)cn2)CC1` [Compound 554]: the IC50 at Cdk9/cyclinT1 (neutral species) turned out to be 0.395 nM.

On to `N#CC1(CNc2cccc(-c3cc(N[C@H]4CC[C@H](NC[C@@H](O)CF)CC4)ncc3Cl)n2)CCOCC1` [Compound 544], for which the IC50 on Cdk9/cyclinT1 (TFA salt) stood at 0.2 nM.

With `N#CC1(CNc2cccc(-c3cc(N[C@H]4CC[C@H](N[C@@H]5CCCC[C@H]5O)CC4)ncc3Cl)n2)CCOCC1` [Compound 525], on Cdk9/cyclinT1 (TFA salt), the IC50 was 0.542 nM.
